Experimental data taken from patent US4250259A, “Microbiological production of ketones from C3 -C6 secondary alcohols” (priority 1979, dated 1981).
Entries after “also recorded” stand apart in the source; their conditions may differ.

Key:
[1] = test system: purified secondary alcohol dehydrogenase; assay: inhibition of purified yeast SADH; type: biochemical, Pichia sp. NRRL Y-11,328; conditions: primary alcohols tested at 10^-3 M
Protocol: Large scale cultures of Pichia sp. NRRL Y-11,328 were grown with aeration at 30° C. in a 14-liter New Brunswick f fermentor in a mineral salt medium containing methanol (0.4%, v/v) as the sole carbon source. The cells (200 g., wet weight) were suspended in […] sodium phosphate buffer, pH 7.0, containing 1 mM dithiothreitol (buffer A), and crude extracts were prepared as described previously. To the crude extracts, 18 ml. of protamine sulfate solution [2% solution in 0.1 M tris (hydroxymethyl) aminomethane (tris) base] was added dropwise with continuous stirring. After standing for 30 min., the extracts were centrifuged at 20,000× g. for 60 min. The supernatant solution was fractionated with solid ammonium sulfate. Extracts were brought to 50% of saturation with respect to ammonium sulfate by addition of 313 g. of the salt per liter of extract. Precipitated proteins was removed by centrifugation, and 137 g. of ammonium sulfate was added per liter of the supernatant liquid to bring it to 70% of saturation. Material precipitating between 50 and 70% of saturation was collected by centrifugation and dissolved in buffer A. This preparation was dialyzed overnight against buffer A, and the dialyzed material was applied to a DEAE-cellulose column (5×40 cm) that had been equilibrated with buffer A. The sample was washed with 200 ml. of buffer A and eluted with 2 liters of buffer A that contained NaCl in a linear gradient running from a concentration of 0 to 0.5 M. Fractions of 15 ml. were collected. Fractions containing secondary alcohol dehydrogenase activity were pooled and were termed DEAE-cellulose eluate. The DEAE-cellulose eluate was concentrated by ammonium sulfate fractionation.
Secondary alcohol dehydrogenase activity was measured spectrophotometrically at 340 nm with a NAD^+ as an electron acceptor. The reaction mixture, in a total 3.0 ml., contained 50 mM phosphate buffer, pH 8.0, 5 μmoles NAD^+, crude extracts, and substrate. The reactions were started by addition of 100 μl of 0.1 M substrate and the rate of NAD^+ reduction was measured. Protein concentration was determined by the method of Lowry et al.
Various primary alcohols not oxidized by secondary alcohol dehydrogenase were tested as potential inhibitors of enzyme activity.

cell-free SADH system = assay: cofactor requirement of the cell-free SADH systems; type: biochemical; conditions: cell-free systems tested
Protocol: To prepare the cell-free secondary alcohol dehydrogenase (SADH) system, the washed cells were disrupted with a Wave Energy Ultrasonic Oscillator, Model W201 (Wave Energy System, Inc., Newtown, Pa.) and centrifuged at 20,000×g. for 30 minutes. […] The enzyme activity was measured with a fluorescence spectrophotometer (Perkin Elmer, Model MPF 44A) by following the formation of reduced NAD (EX 340 nm, Em 460 nm). The formation of reduced NAD was also followed with an absorption spectrophotometer at 340 nm. The assay system (3 ml.) contained: potassium phosphate buffer pH 7.0; 150 μmol.; NAD 1 μmol.; a given amount of enzyme preparation; and secondary alcohol 10 μmol. The reaction was started by the addition of substrate. One unit of enzyme activity represents the reduction of one μmole NAD per minute. Protein concentrations were determined by the Lowry method (J. Biol. Chem., 193: 255-275 (1951)).

[2] = test system: Methylobacterium sp. (CRL-26, NRRL-B-11,208); assay: n-alkanes to secondary alcohols by cell suspensions (Table XVI); type: cell-based; conditions: Growth Substrate Methane
Excerpt: (§1) Both cell suspensions (particulate fraction) and cell-free particulate fraction of methane-grown methylotroph microorganisms are capable of catalyzing the conversion of C3 -C6 n-alkanes to the corresponding alcohols including secondary alcohols. The conditions for preparing the cell suspensions or the cell-free particulate fractions from methane-grown methylotroph microorganisms is the same as described above. The cell-free particulate fraction requires the presence of oxygen and NADH as an electron donor. […] Tables XVI and XVII show the conversion of C3 -C6 n-alkanes to the corresponding secondary alcohols using cell suspensions and cell-free particulate fractions, respectively, of methane-grown methylotroph microorganisms.
(§2) ^(a) The product secondary alcohols were identified and estimated by […]

[3] = test system: Methylosinus trichosporium (OB3b, NRRL-B-11,196); assay: as above; type: cell-based; conditions: Growth Substrate Methane
Excerpt: as §1, §2

[4] = test system: Methylococcus capsulatus (Texas, ATCC 19,069); assay: as above; type: cell-based; conditions: Growth Substrate Methane
Excerpt: as §1, §2

[5] = test system: Methylomonas methanica SI (NRRL B-11,199); assay: n-alkanes to methyl ketones by resting cell suspensions (Table I); type: cell-based; conditions: cells grown on methane; 30° C.
Protocol: (§3) The pH of the nutrient medium was adjusted to 7.0 by the addition of acid or base and 50 ml. samples of the nutrient medium were charged into a plurality of 300 ml. shaker flasks. […] The isolates had been maintained on methanol (0.4% V/V) agar plates or on agar plates under an atmosphere of methane and air having a 1:1 V/V gas ratio which had been transferred every two weeks. For growth on methanol, the medium was supplemented with 0.4% methanol. For growth on methane, the gaseous phase of the inoculated flasks was replaced with a gas mixture comprised of methane and air having a ratio of 1:1 on a V/V basis. The inoculated flasks were sealed air-tight and were incubated on a rotary shaker of orbital radius 2.5 cm. at 250 rpm and at 30° C. for two days until turbidity in the medium had developed. The cells were harvested by centrifugation at 10,000×g. at 4° C. for 30 minutes. The cell pellet was washed twice with a 0.05 M phosphate buffer at a pH of 7.0 (containing 0.02 M MgCl2). The washed cells were then suspended in a 0.05 M phosphate buffer at pH 7.0.
(§4) A 0.5 ml. sample of each washed cell suspension (2 mg. cells) was put into 10 ml. vials at 4° C. which were sealed with a rubber cap. The gaseous phase of the vials was removed with vacuum and then was replaced with a gas mixture of the substrate reactant (i.e., alkane or secondary alcohol) and oxygen at a 1:1 V/V ratio. (In the case of a liquid substrate, i.e., secondary alcohol, 10 μl of the substrate was put in the 10 ml. vials). The vials were then incubated at 30° C. on a rotary shaker at 300 rpm. Samples of product (1-3 μl) were withdrawn periodically with a microsyringe and the products were analyzed by gas chromatography (ionization flame detector column).

[6] = test system: Methylobacterium organophilum XX; assay: as above; type: cell-based; conditions: cells grown on methane; 30° C.
Protocol: as §3, §4

[7] = test system: Methylobacter capsulatus Y (NRRL B-11,201); assay: as above; type: cell-based; conditions: cells grown on methane; 30° C.
Protocol: as §3, §4

[8] = test system: Methylocystis parvus OBBP (NRRL B-11,198); assay: as above; type: cell-based; conditions: cells grown on methane; 30° C.
Protocol: as §3, §4

[9] = test system: Methylosinus trichosporium OB3b (NRRL B-11,196); assay: as above; type: cell-based; conditions: cells grown on methane; 30° C.
Protocol: as §3, §4

[10] = test system: Methylococcus capsulatus Texas (ATCC 19069); assay: as above; type: cell-based; conditions: cells grown on methane; 30° C.
Protocol: as §3, §4

[11] = test system: purified secondary alcohol dehydrogenase (SADH); assay: inhibition of purified SADH by metal-chelating agents, thioreagents, metals; type: biochemical, Pseudomonas sp. ATCC 21439; conditions: for % inhibition of SADH activity: each inhibitor at a final concentration of 1 mM, measured spectrofluorometrically
Protocol: Secondary alcohol dehydrogenase (SADH) from an obligate methanol utilizer, Pseudomonas sp. ATCC 21439 was purified as follows. […] 0.05 M sodium phosphate buffer, pH 7.0 with 0.5 mM dithiothretol (buffer A) and were disrupted sonically (5×1 min.). The crude extract was separated by centrifugation. The crude extract was heat-treated at 50° C. in a water bath for 10 minutes. The resulting precipitate was removed by centrifugation. To the supernatant solution, 25 ml of protamine sulfate solution (2% solution in 0.1 M Tris base) was added dropwise with continuous stirring. After standing for 30 minutes, the extract was centrifuged. The supernatant solution was fractionated with solid ammonium sulfate. […] This DEAE-cellulose eluate was concentrated by ammonium sulfate fractionation. Material precipitating between 30 and 50% ammonium sulfate saturation was collected by centrifugation and dialyzed overnight against A. This fraction was further washed and filtered through an Amicon unit with XM 50 membrane. The concentrated fraction (6 ml) inside the Amicon unit was applied to an Affi-Gel Blue column (0.8 cm×18 cm) which had been equilibrated with buffer A for affinity chromatography. The column was washed overnight with buffer A (0.18 ml./min.) and then was eluted with buffer A containing 5 mM NAD. Each 1 ml. fraction was collected.
The purified secondary alcohol dehydrogenase enzyme (SADH) may be used directly for converting C3 -C6 secondary alcohols to the corresponding methyl ketones by the procedures described above; however, a source of NAD^+ must be added to the reaction medium. One can determine the NAD-linked secondary alcohol dehydrogenase activity with a fluorescence spectrophotometer (Perkin Elmer, Model MPF 44A) by following the formation of reduced NAD (Ex 340 nm, Em 460 nm). The assay system (3 ml.) will typically contain: sodium phosphate buffer pH 7.0, 150 μmol; NAD 1.0 μmol; a given amount of enzyme preparation; and 20 μmol secondary alcohol. The reaction is started by the addition of secondary alcohol. One unit of SADH enzyme activity represents the reduction of one nmole NAD per minute.
The effect of metal-chelating agents and thioreagents on the activity of the purified SADH enzyme were studied. […] The possibility of ethanol or n-propanol as an inhibitor was studied.

[12] = test system: cell-free extracts of strain ATCC 21439; assay: stoichiometry of production of 2-butanone from 2-butanol by cell-free extracts (Table IX); type: biochemical, Pseudomonas sp. ATCC 21,439; conditions: for NAD Consumed: fluorescence spectrophotometrically
Protocol: The reaction mixtures 3 ml (1.0 mg protein) were incubated at 30°
^(a) Determined gas chromatographically.
^(b) Determined fluorescence spectrophotometrically.
consumption of NAD was corrected.

[13] = test system: cell suspensions of C1-utilizers; assay: studies on production of 2-butanone from 2-butanol by cell suspensions of the strains tested; type: cell-based; conditions: for inhibition of production of 2-butanone from 2-butanol by cell suspensions: strains tested
Excerpt: The following summarizes tests conducted on the optimal conditions for the production of methyl ketones from C3 -C6 sec. alcohols.
The substrate specificity for the oxidation of C3 -C6 secondary alcohols by the strains of C1 -utilizers was studied.

[14] = test system: purified secondary alcohol dehydrogenase; assay: substrate specificity, electron acceptor and stoichiometry of purified yeast SADH
[15] = test system: cell-free particulate fractions of methane-grown methylotrophs; assay: inhibitors and electron donors of n-alkane conversion to sec. alcohols by cell-free particulate fractions; type: biochemical
Excerpt: The conditions for preparing the cell suspensions or the cell-free particulate fractions from methane-grown methylotroph microorganisms is the same as described above.

c1c[nH]cn1 [imidiazole]
inhibition of purified yeast secondary alcohol dehydrogenase activity [1]: strongly inhibited

N[C@@H](CCC(=O)N[C@@H](CS)C(=O)NCC(=O)O)C(=O)O [GSH, glutathione]
inhibition of purified yeast secondary alcohol dehydrogenase activity [1]: strongly inhibited
effectiveness as cofactor for oxidation of 2-butanol / C3-C6 secondary alcohols (cell-free SADH system): not effective

O=S(=O)([O-])[O-].[Cu+2] [cupric sulfate]
inhibition of purified yeast secondary alcohol dehydrogenase activity [1]: inhibited

CCCCCC [n-Hexane, n-hexane]
Conversion Rate, n-alkane to corresponding secondary alcohol [2]: 0.007 μmoles/hr/^5 mg. protein
Conversion Rate, n-alkane to corresponding secondary alcohol [3]: 0.01 μmoles/hr/^5 mg. protein
Conversion Rate, n-alkane to corresponding secondary alcohol [4]: 0.01 μmoles/hr/^5 mg. protein
Conversion Rates, n-alkane to corresponding methyl ketone [5]: 0.02 μmoles/hr/mg protein
Conversion Rates, n-alkane to corresponding methyl ketone [6]: 0.09 μmoles/hr/mg protein
Conversion Rates, n-alkane to corresponding methyl ketone [7]: 0.07 μmoles/hr/mg protein
Conversion Rates, n-alkane to corresponding methyl ketone [8]: 0.04 μmoles/hr/mg protein
Conversion Rates, n-alkane to corresponding methyl ketone [9]: 0.05 μmoles/hr/mg protein
Conversion Rates, n-alkane to corresponding methyl ketone [10]: 0.09 μmoles/hr/mg protein

N#C[S][Hg][S]C#N [mercuric thiocyanate]
inhibition of purified yeast secondary alcohol dehydrogenase activity [1]: inhibited

O=C(O)c1cc[c]([Hg+])cc1.[OH-] [p-hydroxymercuribenzoate]
inhibition of purified yeast secondary alcohol dehydrogenase activity [1]: strongly inhibited
% inhibition of SADH activity [11]: 100%

CCC(C)=O [2-butanone]
2-Butanone Produced ([12]; Experiment 2: 20 min., gas chromatographically): 520 nmol
further oxidation / degradation of 2-butanone by viable cell suspensions ([13]; 8 μmoles of 2-butanone added): Some enzymatic degradation; also recorded: slowly disappeared
inhibition of production of 2-butanone from 2-butanol by cell suspensions [13]: No product (2-butanone) inhibition was observed; also recorded: did not inhibit
inhibition of SADH activity [11]: inhibited

NC(=O)c1ccc[n+]([C@@H]2O[C@H](COP(=O)([O-])OP(=O)(O)OC[C@H]3O[C@@H](n4cnc5c(N)ncnc54)[C@H](O)[C@@H]3O)[C@@H](O)[C@H]2O)c1 [NAD, Nicotinamide adenine dinucleotide, reference compound]
NAD Consumed ([12]; Experiment 1: 10 min.): 270 nmol
NAD Consumed ([12]; Experiment 2: 20 min.): 540 nmol
effectiveness as cofactor for oxidation of 2-butanol / C3-C6 secondary alcohols (cell-free SADH system): required
ability to act as electron acceptor/carrier for the purified enzyme [14]: required

CCCCC [n-Pentane, n-pentane]
Conversion Rate, n-alkane to corresponding secondary alcohol [2]: 0.01 μmoles/hr/^5 mg. protein
Conversion Rate, n-alkane to corresponding secondary alcohol [3]: 0.06 μmoles/hr/^5 mg. protein
Conversion Rate, n-alkane to corresponding secondary alcohol [4]: 0.032 μmoles/hr/^5 mg. protein
Conversion Rates, n-alkane to corresponding methyl ketone [5]: 0.28 μmoles/hr/mg protein
Conversion Rates, n-alkane to corresponding methyl ketone [6]: 0.58 μmoles/hr/mg protein
Conversion Rates, n-alkane to corresponding methyl ketone [7]: 0.63 μmoles/hr/mg protein
Conversion Rates, n-alkane to corresponding methyl ketone [8]: 0.51 μmoles/hr/mg protein
Conversion Rates, n-alkane to corresponding methyl ketone [9]: 0.72 μmoles/hr/mg protein
Conversion Rates, n-alkane to corresponding methyl ketone [10]: 0.42 μmoles/hr/mg protein

c1cnc2c(c1)ccc1cccnc12 [1,10-phenanthroline]
inhibition of production of 2-butanone from 2-butanol by cell suspensions [13]: inhibited
inhibition of purified yeast secondary alcohol dehydrogenase activity [1]: strongly inhibited
% inhibition of SADH activity [11]: 95%
inhibition of conversion of n-alkanes to sec. alcohols (words) [15]: inhibited

O=[N+]([O-])[O-].[Ag+] [silver nitrate]
inhibition of purified yeast secondary alcohol dehydrogenase activity [1]: inhibited
